Results: patent US20060040905A1 (priority 2002, published 2006)

Tests used:
[1] = tested on: hot plate test; details: in vivo; cited from earlier work
[2] = in vivo; cited from earlier work
[3] = stability in solution across pH range; format: physicochemical; details: wide pH range (4-7) including pH 5.5-6.5
Description: (§1) Nefopam may thus be rapidly and completely absorbed from the nasal cavity and provide the rapid onset of action required to bring pain relief.

[4] = solubility; format: physicochemical
Description: as §1

[5] = tested on: Randall-Selitto pressure test; details: rats; cited from earlier work
[6] = tested on: nasal epithelial cell-line (RPMI 2650); assay: cytotoxicity against nasal epithelial cell-line; format: cell-based; details: RPMI 2650 cells; even at high concentrations (>5 mM)
[7] = stability with excipients individually; format: physicochemical
[8] = tested on: mouse tail-flick test; details: cited from earlier work

CN1CCOC(c2ccccc2)c2ccccc2C1 (racemic) [nefopam]
activity in hot plate test [1]: not active
elimination half-life [2]: four
stability in solution [3]: stable in solution
solubility [4]: highly soluble
activity in Randall-Selitto pressure test [5]: not active
cytotoxicity [6]: no cytotoxicity
stability with all the excipients individually ([7]; 4 weeks incubation at 25° C.): demonstrated
stability with all the excipients individually ([7]; 4 weeks incubation at 50° C.): demonstrated
activity in mouse tail-flick test [8]: not active
